In patent US11109593B2, “Isoxazolin-5-one derivative and herbicide containing same as active ingredient” (HOKKO CHEMICAL INDUSTRY CO., LTD., priority 2017, dated 2021):

test system: Scirpus juncoides; assay: Test Example 2: herbicidal effect test by treatment during growing period in paddy rice cultivation (seven days after seeding); format: in vivo; conditions: 120 g/10a active ingredient, assessed 14 days after treatment, dry weight vs untreated area
Method in brief: (§1)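 Seeds sown 0–1 cm deep in puddled, fertilised paddy soil with about 3 cm standing water in a glass greenhouse. Diluted emulsion dropped into the water seven days after seeding at 120 g active ingredient per 10 ares. Herbicidal rate (%) from mean dry weight vs untreated, duplicate, 14 days after treatment.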

Row | SMILES | Herbicidal rate (%) Scirpus juncoides
1 | Cc1c(Cc2ccccc2N(S(=O)(=O)C(F)(F)F)S(=O)(=O)C(F)(F)F)c(=O)on1CCOCC(C)C [Compound 1-1000] | 90%
2 | COCC(C)n1oc(=O)c(Cc2ccccc2N(C(=O)C2CCCCC2)S(=O)(=O)C(F)(F)F)c1C (stereo not drawn) [Compound 1-434] | 90%
3 | CCCC(c1ccccc1)n1oc(=O)c(Cc2ccccc2N(S(=O)(=O)C(F)(F)F)S(=O)(=O)C(F)(F)F)c1C (stereo not drawn) [Compound 1-1039] | 80%

test system: Echinochloa crus-galli; assay: as above; format: in vivo; conditions: 120 g/10a active ingredient, assessed 14 days after treatment, dry weight vs untreated area
Method in brief: as §1

Row | SMILES | Herbicidal rate (%) Echinochloa crus-galli
4 | Cc1c(Cc2ccccc2N(S(=O)(=O)C(F)(F)F)S(=O)(=O)C(F)(F)F)c(=O)on1CCOCC(C)C [Compound 1-1000] | 90%
5 | COCC(C)n1oc(=O)c(Cc2ccccc2N(C(=O)C2CCCCC2)S(=O)(=O)C(F)(F)F)c1C (stereo not drawn) [Compound 1-434] | 90%
6 | CCCC(c1ccccc1)n1oc(=O)c(Cc2ccccc2N(S(=O)(=O)C(F)(F)F)S(=O)(=O)C(F)(F)F)c1C (stereo not drawn) [Compound 1-1039] | 100%

test system: broad leaf weeds (Lindernia pyxidaria and Monochoria vaginalis); assay: as above; format: in vivo; conditions: Lindernia pyxidaria, 120 g/10a active ingredient, assessed 14 days after treatment, dry weight vs untreated area
Method in brief: as §1

Row | SMILES | Herbicidal rate (%) Lindernia pyxidaria
7 | Cc1c(Cc2ccccc2N(S(=O)(=O)C(F)(F)F)S(=O)(=O)C(F)(F)F)c(=O)on1CCOCC(C)C [Compound 1-1000] | 40%
8 | COCC(C)n1oc(=O)c(Cc2ccccc2N(C(=O)C2CCCCC2)S(=O)(=O)C(F)(F)F)c1C (stereo not drawn) [Compound 1-434] | 90%
9 | CCCC(c1ccccc1)n1oc(=O)c(Cc2ccccc2N(S(=O)(=O)C(F)(F)F)S(=O)(=O)C(F)(F)F)c1C (stereo not drawn) [Compound 1-1039] | 70%

same assay, conditions: Monochoria vaginalis, 120 g/10a active ingredient, assessed 14 days after treatment, dry weight vs untreated area

Row | SMILES | Herbicidal rate (%) Monochoria vaginalis
10 | Cc1c(Cc2ccccc2N(S(=O)(=O)C(F)(F)F)S(=O)(=O)C(F)(F)F)c(=O)on1CCOCC(C)C [Compound 1-1000] | 70%
11 | COCC(C)n1oc(=O)c(Cc2ccccc2N(C(=O)C2CCCCC2)S(=O)(=O)C(F)(F)F)c1C (stereo not drawn) [Compound 1-434] | 90%
12 | CCCC(c1ccccc1)n1oc(=O)c(Cc2ccccc2N(S(=O)(=O)C(F)(F)F)S(=O)(=O)C(F)(F)F)c1C (stereo not drawn) [Compound 1-1039] | 80%

test system: Echinochloa crus-galli; assay: Test Example 4: herbicidal effect test by treatment of leave and stem in dry field farming (seven days after seeding); format: in vivo; conditions: 120 g/10a active ingredient; emulsion sprayed seven days after seeding; evaluated 14 days after treatment
Method in brief: (§2)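 Twenty seeds per species were mixed into the top 1 cm of alluvial soil in 36 cm^2 pots; emulsions were sprayed seven days after seeding at 100 L per 10 ares (120 g active ingredient per 10 ares). Herbicidal rate (%) = {1 − treated/untreated mean dry weight} × 100, 14 days after treatment, duplicate.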

Row | SMILES | herbicidal effect (herbicidal rate), Echinochloa crus-galli
13 | Cc1c(Cc2ccccc2N(S(=O)(=O)C(F)(F)F)S(=O)(=O)C(F)(F)F)c(=O)on1CCOCC(C)C [Compound 1-1000] | 60%
14 | COCC(C)n1oc(=O)c(Cc2ccccc2N(C(=O)C2CCCCC2)S(=O)(=O)C(F)(F)F)c1C (stereo not drawn) [Compound 1-434] | 90%
15 | CCCC(c1ccccc1)n1oc(=O)c(Cc2ccccc2N(S(=O)(=O)C(F)(F)F)S(=O)(=O)C(F)(F)F)c1C (stereo not drawn) [Compound 1-1039] | 90%

test system: Chenopodium album; assay: as above; format: in vivo; conditions: 120 g/10a active ingredient; emulsion sprayed seven days after seeding; evaluated 14 days after treatment
Method in brief: as §2

Row | SMILES | herbicidal effect (herbicidal rate), Chenopodium album
16 | Cc1c(Cc2ccccc2N(S(=O)(=O)C(F)(F)F)S(=O)(=O)C(F)(F)F)c(=O)on1CCOCC(C)C [Compound 1-1000] | 0%
17 | COCC(C)n1oc(=O)c(Cc2ccccc2N(C(=O)C2CCCCC2)S(=O)(=O)C(F)(F)F)c1C (stereo not drawn) [Compound 1-434] | 40%
18 | CCCC(c1ccccc1)n1oc(=O)c(Cc2ccccc2N(S(=O)(=O)C(F)(F)F)S(=O)(=O)C(F)(F)F)c1C (stereo not drawn) [Compound 1-1039] | 40%

test system: southern crabgrass; assay: as above; format: in vivo; conditions: 120 g/10a active ingredient; emulsion sprayed seven days after seeding; evaluated 14 days after treatment
Method in brief: as §2

Row | SMILES | herbicidal effect (herbicidal rate), southern crabgrass
19 | Cc1c(Cc2ccccc2N(S(=O)(=O)C(F)(F)F)S(=O)(=O)C(F)(F)F)c(=O)on1CCOCC(C)C [Compound 1-1000] | 40%
20 | COCC(C)n1oc(=O)c(Cc2ccccc2N(C(=O)C2CCCCC2)S(=O)(=O)C(F)(F)F)c1C (stereo not drawn) [Compound 1-434] | 90%
21 | CCCC(c1ccccc1)n1oc(=O)c(Cc2ccccc2N(S(=O)(=O)C(F)(F)F)S(=O)(=O)C(F)(F)F)c1C (stereo not drawn) [Compound 1-1039] | 90%

test system: Amaranthus viridis; assay: as above; format: in vivo; conditions: 120 g/10a active ingredient; emulsion sprayed seven days after seeding; evaluated 14 days after treatment
Method in brief: as §2

Row | SMILES | herbicidal effect (herbicidal rate), Amaranthus viridis
22 | Cc1c(Cc2ccccc2N(S(=O)(=O)C(F)(F)F)S(=O)(=O)C(F)(F)F)c(=O)on1CCOCC(C)C [Compound 1-1000] | 40%
23 | COCC(C)n1oc(=O)c(Cc2ccccc2N(C(=O)C2CCCCC2)S(=O)(=O)C(F)(F)F)c1C (stereo not drawn) [Compound 1-434] | 40%
24 | CCCC(c1ccccc1)n1oc(=O)c(Cc2ccccc2N(S(=O)(=O)C(F)(F)F)S(=O)(=O)C(F)(F)F)c1C (stereo not drawn) [Compound 1-1039] | 40%

test system: Echinochloa crus-galli; assay: Test Example 3: herbicidal effect test by treatment of dry field farming soil (one day after seeding); format: in vivo; conditions: 120 g/10a active ingredient, evaluated 14 days after treatment
Method in brief: (§3)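 Alluvial dry-field soil in pots, top 1 cm mixed with 20 seeds per weed species. One day after seeding, the water-diluted emulsion was sprayed onto the soil surface at 100 L per 10 ares (120 g active ingredient per 10 ares). Duplicate pots; herbicidal rate (%) from plant dry weight versus untreated, 14 days after treatment.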

Row | SMILES | herbicidal rate, Echinochloa crus-galli
25 | Cc1c(Cc2ccccc2N(S(=O)(=O)C(F)(F)F)S(=O)(=O)C(F)(F)F)c(=O)on1CCOCC(C)C [Compound 1-1000] | 60%
26 | COCC(C)n1oc(=O)c(Cc2ccccc2N(C(=O)C2CCCCC2)S(=O)(=O)C(F)(F)F)c1C (stereo not drawn) [Compound 1-434] | 90%
27 | CCCC(c1ccccc1)n1oc(=O)c(Cc2ccccc2N(S(=O)(=O)C(F)(F)F)S(=O)(=O)C(F)(F)F)c1C (stereo not drawn) [Compound 1-1039] | 90%

test system: Chenopodium album; assay: as above; format: in vivo; conditions: 120 g/10a active ingredient, evaluated 14 days after treatment
Method in brief: as §3

Row | SMILES | herbicidal rate, Chenopodium album
28 | Cc1c(Cc2ccccc2N(S(=O)(=O)C(F)(F)F)S(=O)(=O)C(F)(F)F)c(=O)on1CCOCC(C)C [Compound 1-1000] | 40%
29 | COCC(C)n1oc(=O)c(Cc2ccccc2N(C(=O)C2CCCCC2)S(=O)(=O)C(F)(F)F)c1C (stereo not drawn) [Compound 1-434] | 90%
30 | CCCC(c1ccccc1)n1oc(=O)c(Cc2ccccc2N(S(=O)(=O)C(F)(F)F)S(=O)(=O)C(F)(F)F)c1C (stereo not drawn) [Compound 1-1039] | 0%

test system: southern crabgrass; assay: as above; format: in vivo; conditions: 120 g/10a active ingredient, evaluated 14 days after treatment
Method in brief: as §3

Row | SMILES | herbicidal rate, southern crabgrass
31 | Cc1c(Cc2ccccc2N(S(=O)(=O)C(F)(F)F)S(=O)(=O)C(F)(F)F)c(=O)on1CCOCC(C)C [Compound 1-1000] | 80%
32 | COCC(C)n1oc(=O)c(Cc2ccccc2N(C(=O)C2CCCCC2)S(=O)(=O)C(F)(F)F)c1C (stereo not drawn) [Compound 1-434] | 90%
33 | CCCC(c1ccccc1)n1oc(=O)c(Cc2ccccc2N(S(=O)(=O)C(F)(F)F)S(=O)(=O)C(F)(F)F)c1C (stereo not drawn) [Compound 1-1039] | 90%

test system: Amaranthus viridis; assay: as above; format: in vivo; conditions: 120 g/10a active ingredient, evaluated 14 days after treatment
Method in brief: as §3

Row | SMILES | herbicidal rate, Amaranthus viridis
34 | Cc1c(Cc2ccccc2N(S(=O)(=O)C(F)(F)F)S(=O)(=O)C(F)(F)F)c(=O)on1CCOCC(C)C [Compound 1-1000] | 40%
35 | COCC(C)n1oc(=O)c(Cc2ccccc2N(C(=O)C2CCCCC2)S(=O)(=O)C(F)(F)F)c1C (stereo not drawn) [Compound 1-434] | 90%
36 | CCCC(c1ccccc1)n1oc(=O)c(Cc2ccccc2N(S(=O)(=O)C(F)(F)F)S(=O)(=O)C(F)(F)F)c1C (stereo not drawn) [Compound 1-1039] | 0%

test system: Scirpus juncoides; assay: Test Example 1: herbicidal effect test by treatment of rice paddy soil (immediately after seeding); format: in vivo; conditions: 120 g/10a active ingredient, dry weight vs untreated area, 14 days after treatment
Method in brief: (§4)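 Pre-emergence paddy water application, 120 g a.i./10 ares, applied immediately post-seeding into ~3 cm flood; glasshouse; duplicate pots; dry weight at 14 d → % inhibition = (1 − treated/untreated) × 100.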

Row | SMILES | Herbicidal rate (%) Scirpus juncoides
37 | Cc1c(Cc2ccccc2N(S(=O)(=O)C(F)(F)F)S(=O)(=O)C(F)(F)F)c(=O)on1CCOCC(C)C [Compound 1-1000] | 100%
38 | COCC(C)n1oc(=O)c(Cc2ccccc2N(C(=O)C2CCCCC2)S(=O)(=O)C(F)(F)F)c1C (stereo not drawn) [Compound 1-434] | 90%
39 | CCCC(c1ccccc1)n1oc(=O)c(Cc2ccccc2N(S(=O)(=O)C(F)(F)F)S(=O)(=O)C(F)(F)F)c1C (stereo not drawn) [Compound 1-1039] | 90%

test system: Echinochloa crus-galli; assay: as above; format: in vivo; conditions: 120 g/10a active ingredient, dry weight vs untreated area, 14 days after treatment
Method in brief: as §4

Row | SMILES | Herbicidal rate (%) Echinochloa crus-galli
40 | Cc1c(Cc2ccccc2N(S(=O)(=O)C(F)(F)F)S(=O)(=O)C(F)(F)F)c(=O)on1CCOCC(C)C [Compound 1-1000] | 100%
41 | COCC(C)n1oc(=O)c(Cc2ccccc2N(C(=O)C2CCCCC2)S(=O)(=O)C(F)(F)F)c1C (stereo not drawn) [Compound 1-434] | 90%
42 | CCCC(c1ccccc1)n1oc(=O)c(Cc2ccccc2N(S(=O)(=O)C(F)(F)F)S(=O)(=O)C(F)(F)F)c1C (stereo not drawn) [Compound 1-1039] | 90%

test system: broad leaf weeds (Lindernia pyxidaria and Monochoria vaginalis); assay: as above; format: in vivo; conditions: Lindernia pyxidaria, 120 g/10a active ingredient, dry weight vs untreated area, 14 days after treatment
Method in brief: as §4

Row | SMILES | Herbicidal rate (%) Lindernia pyxidaria
43 | Cc1c(Cc2ccccc2N(S(=O)(=O)C(F)(F)F)S(=O)(=O)C(F)(F)F)c(=O)on1CCOCC(C)C [Compound 1-1000] | 80%
44 | COCC(C)n1oc(=O)c(Cc2ccccc2N(C(=O)C2CCCCC2)S(=O)(=O)C(F)(F)F)c1C (stereo not drawn) [Compound 1-434] | 90%
45 | CCCC(c1ccccc1)n1oc(=O)c(Cc2ccccc2N(S(=O)(=O)C(F)(F)F)S(=O)(=O)C(F)(F)F)c1C (stereo not drawn) [Compound 1-1039] | 90%

same assay, conditions: Monochoria vaginalis, 120 g/10a active ingredient, dry weight vs untreated area, 14 days after treatment

Row | SMILES | Herbicidal rate (%) Monochoria vaginalis
46 | Cc1c(Cc2ccccc2N(S(=O)(=O)C(F)(F)F)S(=O)(=O)C(F)(F)F)c(=O)on1CCOCC(C)C [Compound 1-1000] | 90%
47 | COCC(C)n1oc(=O)c(Cc2ccccc2N(C(=O)C2CCCCC2)S(=O)(=O)C(F)(F)F)c1C (stereo not drawn) [Compound 1-434] | 90%
48 | CCCC(c1ccccc1)n1oc(=O)c(Cc2ccccc2N(S(=O)(=O)C(F)(F)F)S(=O)(=O)C(F)(F)F)c1C (stereo not drawn) [Compound 1-1039] | 80%
